Reference: US20040191833A1, “Selective activation of cellular activities mediated through a common toll-like receptor” (3M Innovative Properties Company, priority 2003, published 2004)

Experiments:
human TLR7 [1] = molecular target: T1, human TLR7 (Homo sapiens, UniProt Q9NYK1); experiment: TLR7 activation in HEK293 cells (NF-kB-luc luciferase reporter, H-TLR7/H-vector); assay type: cell-based; settings: final IRM concentration 10 μM, 16 hours, normalized to the DMSO without compound control
T1 construct: expressed in transfected cells; host or cells: Namalwa cells (ATCC CRL-1432), pCI-neo vector, electroporated, G418 selected, with pIFN-α1-luc reporter
T1 sequence (Q9NYK1 27-1049): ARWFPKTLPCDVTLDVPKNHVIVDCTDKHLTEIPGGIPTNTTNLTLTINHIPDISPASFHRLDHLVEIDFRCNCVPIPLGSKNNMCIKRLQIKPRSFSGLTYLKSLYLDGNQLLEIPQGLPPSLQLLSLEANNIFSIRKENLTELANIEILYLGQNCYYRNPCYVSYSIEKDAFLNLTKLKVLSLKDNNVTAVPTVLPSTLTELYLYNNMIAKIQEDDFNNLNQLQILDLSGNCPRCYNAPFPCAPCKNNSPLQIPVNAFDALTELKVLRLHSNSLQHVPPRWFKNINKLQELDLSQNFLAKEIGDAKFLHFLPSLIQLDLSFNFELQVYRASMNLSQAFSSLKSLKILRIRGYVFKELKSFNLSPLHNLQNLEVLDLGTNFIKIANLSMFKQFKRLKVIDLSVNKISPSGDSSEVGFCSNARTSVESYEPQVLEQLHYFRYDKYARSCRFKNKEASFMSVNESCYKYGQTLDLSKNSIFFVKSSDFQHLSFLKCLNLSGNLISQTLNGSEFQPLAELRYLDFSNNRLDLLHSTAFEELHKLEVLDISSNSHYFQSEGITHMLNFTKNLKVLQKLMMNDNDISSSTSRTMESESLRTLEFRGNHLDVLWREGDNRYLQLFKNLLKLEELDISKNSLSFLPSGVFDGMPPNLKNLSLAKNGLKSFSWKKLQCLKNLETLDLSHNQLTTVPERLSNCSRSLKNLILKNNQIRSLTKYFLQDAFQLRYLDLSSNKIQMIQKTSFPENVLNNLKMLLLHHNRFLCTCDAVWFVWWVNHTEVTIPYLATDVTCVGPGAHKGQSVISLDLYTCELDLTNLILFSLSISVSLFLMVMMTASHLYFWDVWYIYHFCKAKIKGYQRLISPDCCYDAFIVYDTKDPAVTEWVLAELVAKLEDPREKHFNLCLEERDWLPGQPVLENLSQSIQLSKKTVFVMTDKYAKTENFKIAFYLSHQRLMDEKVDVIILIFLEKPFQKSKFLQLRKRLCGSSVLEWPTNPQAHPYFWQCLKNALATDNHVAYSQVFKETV
Method: (§1) In one embodiment, exemplified in Example 1, selective modulation of TLR7-mediated NF-κB activation and TLR7-mediated IFN-α1 induction were assayed. NF-κB activation was measured in genetically modified HEK293 cells (H-TLR7) by detecting TLR7-mediated NF-κB-dependent transcription of a luciferase reporter. IFN-α1 induction was measured in genetically modified Namalwa cells (N-TLR7) by detecting TLR-mediated IFN-α1-induced transcription of a luciferase reporter. Results are shown in Table 2 and are expressed as the fold increase in TLR7-mediated luciferase signal—(H-TLR7/H-vector) and (N-TLR7/N-vector), respectively—normalized to a control in which the cells were treated with vehicle that contained no IRM compound. In this assay, a compound was considered to induce the TLR7-mediated cellular activity if the compound generated at least a two-fold increase in the luciferase signal compared to the vector control.
HEK293 medium was prepared from 90% Minimum Essential Medium (MEM) with 2 mM L-glutamine and Earle's Balanced Salt Solution (Invitrogen Corp., Rockville, Md.) adjusted to contain 1.5 g/L sodium bicarbonate, 0.1 mM non-essential amino acids, and 1.0 mM sodium pyruvate; 10% heat-inactivated fetal calf serum. HEK293 cells were cultured by incubating cells in HEK293 medium overnight at 37° C, 8% CO2.
Twenty-four hours before transfection, HEK293 cells were adhered to a 10 cm dish (Corning 430167, Corning Inc., Corning, N.Y.) at 37° C., 8% CO2. The cells were co-transfected with (1) pIRES (BD Biosciences Clontech, Palo Alto, Calif.) either (a) unmodified (H-vector), or (b) containing an expressible human TLR7 gene (H-TLR7), and (2) NF-kB-luc reporter (Stratagene, La Jolla, Calif.) in a 10:1 ratio with Fugene 6 transfection reagent (Roche Diagnostics Corp., Indianapolis, Ind.) following the manufacturer's instructions. The plates were incubated for 24 hours following transfection and then selected in G-418 (400 μg/mL) for two weeks. The G-418-resistant cells containing either the expressible TLR7 gene or the empty vector were expanded in HEK293 medium supplemented with G-418 for stimulation experiments.
The transfected cells were plated in white opaque 96 well plates (Costar 3917, Corning Inc., Corning, N.Y.) at a concentration of 5×10^4 cells per well in 100 μL of HEK293 media and incubated at 37° C., 8% CO2 for 4 hours. The cells were stimulated with 1 μL of IRM compounds at 1 mM in DMSO (final IRM concentration of 10 μM) or 1 μL DMSO as a control. The plates were then incubated an additional 16 hours at 37° C., 5% CO2. The luciferase signal was read using the LucLite kit (Packard Instrument Co., Meriden, Conn.). Luminescence was measured on an LMAX luminometer (Molecular Devices Corp., Sunnyvale, Calif.).
(§2) The data are expressed as fold increase in TLR7-mediated luciferase signal—(H-TLR7/H-vector) and (N-TLR7/N-vector), respectively—normalized to the DMSO without compound control.

human TLR7 [2] = molecular target: T1, human TLR7; experiment: TLR7 activation in Namalwa cells (IFN-α1 promoter luciferase reporter, N-TLR7/N-vector); assay type: cell-based; settings: final IRM concentration 10 μM, 18 hours, normalized to the DMSO without compound control
Method: as §1
Unless otherwise indicated, all incubations were performed at 37° C. with 5% CO2 at 98% humidity.
Culture medium was prepared from complete RPMI 1640 medium (BioSource International, Inc., Camarillo, Calif.). Fetal bovine serum (Atlas Biologicals, Inc., Ft. Collins, Colo.) was added to a final concentration of 7.5% (vol/vol); L-glutamine (BioSource International, Inc.) was added to 5 mM; and sodium pyruvate (BioSource International, Inc.) was added to 1 mM.
Namalwa cells were grown by incubation in culture medium overnight. Cells were harvested by centrifugation in a tabletop centrifuge (1200 RPM for 5 minutes), and then resuspended in phosphate buffered sucrose to a concentration of 1.3×10^7 cells/mL.
For each transfection, a 750 μL aliquot of the cell suspension was placed in an electroporation cuvette with 4 mm gaps. Each aliquot received transfection DNA: 10 μg of pGL3-Enhancing vector (Promega Corp., Madison, Wis.) containing the human IFN-α1 promoter cloned into the BglII site (pIFN-α1-luc), and 10 μg of pCI-neo mammalian expression vector (Promega Corp.) either (1) unmodified (N-vector) or (2) containing an expressible human TLR7 gene (N-TLR7). The cell and vector mixtures were incubated at room temperature for 5 minutes. The cells were electroporated using a BioRad Gene Pulser (BioRad Laboratories, Hercules, Calif.) set to at 500 μF capacitance and […], then incubated at room temperature for 5 minutes.
The electroporated cells were suspended in 10 mL of culture medium and incubated overnight. Dead cells and debris were removed after 24 hours using a MACS Dead Cell Removal kit (Miltenyi Biotec, Auburn, Calif.). Cells were resuspended in 10 mL of culture medium and incubated for an additional 24 hours.
Transfected cells were selected by adding G418 (Promega Corp., Madison, Wisc.) to a final concentration of 1 mg/mL and incubating the cells for seven days.
The selected transfected cells were counted and resuspended to a concentration of 1×10^6 cell per mL in culture medium. 100 μl aliquots of cells were placed in the wells of a white-walled, white-bottomed 96-well plate (Corning, Inc. Corning, N.Y.). 1.0 μL of an IRM compound from Table 1 (prepared at 1 mM in 100% DMSO) was added to some cell aliquots so that the final concentration of IRM compound was 10 μM. As a positive control, some cell aliquots were incubated with Sendai virus instead of IRM compound. As a negative control, some cell aliquots were incubated with DMSO without IRM compound. In all cases, the cells were incubated for 18 hours.
The plates were equilibrated to room temperature before 1 volume of reconstituted LucLight Plus (Packard Instruments, Meriden, Conn.) was added to each aliquot of cells. Each well of the plate was read on an LJL Analyst (LJL Biosystems, Inc., Sunnyvale, Calif.) set with a 5 minute dark adapt.
as §2

| SMILES | H-TLR7: fold increase in TLR7-mediated luciferase signal (H-TLR7/H-vector), NF-κB-dependent reporter (human TLR7 [1]) [fold] | N-TLR7: fold increase in TLR7-mediated luciferase signal (N-TLR7/N-vector), IFN-α1 promoter reporter (human TLR7 [2]) [fold] |
| --- | --- | --- |
| CCCCc1nc2c(N)nc(C)c(C)c2n1CCCCNC(=O)c1ccccc1 [IRM13, N-[4-(4-amino-2-butyl-6,7-dimethyl-1H-imidazo[4,5-c]pyridin-1-yl)butyl]benzamide] | 1.0 | 2.6 |
| CCCCCc1nc2c(N)nc3ccccc3c2n1CCCCNS(C)(=O)=O [IRM14, N-[4-(4-amino-2-pentyl-1H-imidazo[4,5-c]quinolin-1-yl)butyl]methanesulfonamide] | 0.9 | 3.3 |
| COCCOCc1nc2c(N)nc3ccccc3c2n1CCOc1ccccc1 [IRM15, 2-[(2-methoxyethoxy)methyl]-1-(2-phenoxyethyl)-1H-imidazo[4,5-c]quinolin-4-amine] | 0.8 | 2.7 |
| Cc1nc2c(N)nc3ccccc3c2n1CCCNC(=O)C1CCCC1 [IRM16, N-[3-(4-amino-2-methyl-1H-imidazo[4,5-c]quinolin-1-yl)propyl]cyclopentanecarboxamide] | 0.9 | 2.8 |
| Cc1nc2c(N)nc3ccccc3c2n1CCOCCNC(=O)c1ccccc1 [IRM17, N-{2-[2-(4-amino-2-methyl-1H-imidazo[4,5-c]quinolin-1-yl)ethoxy]ethyl}benzamide] | 0.4 | 3.1 |
| CCc1nc2c(N)nc3ccccc3c2n1CCOCCNC(=O)Nc1ccccc1 [IRM20, N-{2-[2-(4-amino-2-ethyl-1H-imidazo[4,5-c]quinolin-1-yl)ethoxy]ethyl}-N′-phenylurea] | 0.8 | 3.7 |
| CCCCc1nc2c(N)nc3ccccc3c2n1CCCCCS(C)(=O)=O [IRM23, 2-butyl-1-[5-(methylsulfonyl)pentyl]-1H-imidazo[4,5-c]quinolin-4-amine] | 9.4 | 2.8 |
| COCCc1nc2c(N)nc3c(c2n1CC(C)(C)NS(C)(=O)=O)CCCC3 [IRM25, N-{2-[4-amino-2-(2-methoxyethyl)-6,7,8,9-tetrahydro-1H-imidazo[4,5-c]quinolin-1-yl]-1,dimethylethyl}methanesulfonamide] | 7.6 | 3.0 |

Now from value to molecule:

| H-TLR7: fold increase in TLR7-mediated luciferase signal (H-TLR7/H-vector), NF-κB-dependent reporter (human TLR7 [1]) [fold] | N-TLR7: fold increase in TLR7-mediated luciferase signal (N-TLR7/N-vector), IFN-α1 promoter reporter (human TLR7 [2]) [fold] | SMILES |
| --- | --- | --- |
| 0.5 | 3.3 | CCOCc1nc2c(N)nc3ccccc3c2n1CCCCNC(=O)N1CCOCC1 [IRM18] |
| 0.9 | 3.3 | Cc1nc2c(N)nc3ccccc3c2n1CCOCCNS(C)(=O)=O [IRM19, N-{2-[2-(4-amino-2-methyl-1H-imidazo[4,5-c]-1-yl)ethoxy]ethyl}methanesulfonamide] |
| 0.7 | 3.8 | CCCc1nc2c(N)nc3ccccc3c2n1CCCCS(C)(=O)=O [IRM21, 1-[4-(methylsulfonyl)butyl]-2-propyl-1H-imidazo[4,5-c]quinolin-4-amine] |
| 5.5 | 2.2 | CCOCc1nc2c(N)nc3ccccc3c2n1CC(C)C [IRM22, 2-(ethoxymethyl)-1-(2-methylpropyl)-1H-imidazo[4,5-c]quinolin-4-amine] |
| 7.9 | 3.2 | CCC(C)NC(=S)NCCn1c(CCOC)nc2c(N)nc3ccccc3c21 (centres unmarked) [IRM24, N-{2-[4-amino-2-(2-methoxyethyl)-1H-imidazo[4,5-c]quinolin-1-yl]ethyl}-N′-sec-butylthiourea] |
